Data: patent publication US20260070922A1, “PYRAZOLE AND IMIDAZOLE DERIVATIVES AS DUAL OREXIN AND KAPPA-OPIOID RECEPTORS MODULATORS COMPOSITION, METHODS FOR TREATING NEUROLOGICAL AND PSYCHIATRIC DISORDERS” (HAGER BIOSCIENCES, LLC, priority 2022, published 2026)

Key:
[1] = biological target: T1, Orexin type 1 (OX1R) receptor (Homo sapiens, UniProt O43613); assay: In vitro orexin antagonism assay: intracellular calcium measurement (FLIPR), orexin-A 3 nM as agonist; type: cell-based; settings: for inhibition at 1 µM: read-out: OX1R, % Inh. @ 1 uM; for IC50: first value of IC50/Kb cell; for Kb: second value of IC50/Kb cell
T1 construct: expressed in transfected cells; host or cells: CHO cells (G418 selection)
T1 sequence (O43613 1-425): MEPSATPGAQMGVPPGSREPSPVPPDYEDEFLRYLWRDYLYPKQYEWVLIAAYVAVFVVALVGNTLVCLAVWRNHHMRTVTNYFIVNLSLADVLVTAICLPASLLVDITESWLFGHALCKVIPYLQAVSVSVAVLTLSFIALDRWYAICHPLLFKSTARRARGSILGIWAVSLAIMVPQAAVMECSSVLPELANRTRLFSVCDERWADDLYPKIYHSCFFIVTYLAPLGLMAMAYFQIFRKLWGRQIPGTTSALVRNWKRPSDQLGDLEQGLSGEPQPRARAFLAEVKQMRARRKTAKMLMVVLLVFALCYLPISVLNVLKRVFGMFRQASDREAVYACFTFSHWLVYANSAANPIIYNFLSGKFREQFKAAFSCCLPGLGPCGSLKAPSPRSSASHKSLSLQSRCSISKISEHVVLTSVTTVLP
Method: (§1) In Vitro Orexin Antagonism Measurement Assay: Intracellular Calcium Measurements:
(§2) Chinese hamster ovary (CHO) cells expressing the human […] and the human orexin-2 receptor, respectively, are grown in culture medium (Ham F-12 with L-Glutamine) containing 300 μg/mL G418, 100 U/mL penicillin, 100 μg/mL streptomycin and 10% heat inactivated fetal calf serum (FCS). The cells are seeded at 20,000 cells/well into 384-well black clear bottom sterile plates (Greiner). The seeded plates are incubated overnight at 37° C. in 5% 002. Human orexin-A as an agonist is prepared as 1 mM stock solution in MeOH: water (1:1), diluted in HBSS containing 0.1% bovine serum albumin (BSA), NaHCO3: 0.375 g/L and 20 mM HEPES for use in the assay at a final concentration of 3 nM.
(§3) Antagonists are prepared as 10 mM stock solution in DMSO, then diluted in 384-well plates using DMSO followed by a transfer of the dilutions into in HBSS containing 0.1% bovine serum albumin (BSA), NaHCO3: 0.375 g/L and 20 mM HEPES. On the day of the assay, 50 μL of staining buffer (HBSS containing 1% FCS, 20 mM HEPES, NaHCO3: 0.375 g/L, 5 mM probenecid (Sigma) and 3 μM of the fluorescent calcium indicator fluo-4 AM (1 mM stock solution in DMSO, containing 10% pluronic) is added to each well. The 384-well cell-plates are incubated for 50 min at 37° C. in 5% CO2 followed by equilibration at RT for 30 min before measurement.
(§4) Within the Fluorescent Imaging Plate Reader (FLIPR Tetra, Molecular Devices), antagonists are added to the plate in a volume of 10 μL/well, incubated for 120 min and finally 10 μL/well of agonist is added. Fluorescence is measured for each well at 1 second intervals, and the height of each fluorescence peak is compared to the height of the fluorescence peak induced by 3 nM orexin-A with vehicle in place of antagonist. The IC50 value (the concentration of compound needed to inhibit 50% of the agonistic response) is determined and may be normalized using the obtained IC50 value of an on-plate reference compound. Optimized conditions were achieved by adjustment of pipetting speed and cell splitting regime. The calculated IC50values may fluctuate depending on the daily cellular assay performance. Fluctuations of this kind are known to those skilled in the art.

[2] = biological target: T2, human orexin-2 receptor (OX2R) (Homo sapiens, UniProt O43614); assay: as above; type: cell-based; settings: for inhibition at 1 µM: read-out: OX2R, % Inh. @ 1 uM
T2 construct: expressed in transfected cells; host or cells: CHO cells (G418 selection)
T2 sequence (O43614 1-444): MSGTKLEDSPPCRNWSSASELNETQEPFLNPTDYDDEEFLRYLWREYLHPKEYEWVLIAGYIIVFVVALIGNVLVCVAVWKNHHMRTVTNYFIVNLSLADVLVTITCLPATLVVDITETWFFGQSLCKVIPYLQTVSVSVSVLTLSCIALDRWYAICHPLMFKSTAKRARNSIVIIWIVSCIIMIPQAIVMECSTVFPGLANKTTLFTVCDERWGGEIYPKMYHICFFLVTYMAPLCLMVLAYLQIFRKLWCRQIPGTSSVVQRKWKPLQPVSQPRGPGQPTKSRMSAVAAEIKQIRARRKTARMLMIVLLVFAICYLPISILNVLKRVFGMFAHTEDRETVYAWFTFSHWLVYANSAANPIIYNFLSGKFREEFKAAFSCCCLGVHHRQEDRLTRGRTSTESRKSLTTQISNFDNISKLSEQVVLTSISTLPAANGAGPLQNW
Method: Antagonistic activities on both orexin receptors have been measured for each example compound using the following procedure:
as §1, §2, §3
as §4, with “art. In the case where IC50values have been determined several times for the same compound, the geometric mean has been given.” for “art.”

## O=C(c1c(-c2ncccn2)nn2ccccc12)N1C2CCC1(COc1ccc(C(F)(F)F)cn1)CC2 [Example 161]
[1]
  inhibition at 1 µM: 44%
[2]
  inhibition at 1 µM: 6%

## C[C@@]1(COc2cnc(C(F)(F)F)cn2)CCCN1C(=O)c1nn2c(c1-c1ccccc1)COCC2 [Example 162]
[1]
  inhibition at 1 µM: 36%
[2]
  inhibition at 1 µM: 0%

## C[C@@]1(COc2cnc(C(F)(F)F)cn2)CCCN1C(=O)c1nc2ccccn2c1-c1ccccc1 [Example 163]
[1]
  IC50: 771 nM
  inhibition at 1 µM: 75%
  Kb: 162 nM
[2]
  inhibition at 1 µM: 11%

## C[C@@]1(COc2cnc(C(F)(F)F)cn2)CCCN1C(=O)c1c(-c2ccccn2)nn2ccccc12 [Example 164]
[1]
  IC50: 305 nM
  inhibition at 1 µM: 84%
  Kb: 64 nM
[2]
  inhibition at 1 µM: 20%

## C[C@@]1(COc2cnc(C(F)(F)F)cn2)CCCN1C(=O)c1nn2c(c1-c1ccccc1)OCCC2 [Example 165]
[1]
  inhibition at 1 µM: 50%
[2]
  inhibition at 1 µM: 6%

## C[C@@]1(COc2cnc(C(F)(F)F)cn2)CCCN1C(=O)c1c(-c2ncccn2)nn2ccccc12 [Example 166]
[1]
  inhibition at 1 µM: 53%
[2]
  inhibition at 1 µM: 10%

## C[C@@]1(COc2cnc(C(F)(F)F)cn2)CCCN1C(=O)c1nn2cccnc2c1-c1ccccc1 [Example 167]
[1]
  IC50: 326 nM
  inhibition at 1 µM: 82%
  Kb: 69 nM
[2]
  inhibition at 1 µM: 20%

## C[C@@]1(COc2cnc(C(F)(F)F)cn2)CCCN1C(=O)c1c(-c2ccccc2)nn2cccnc12 [Example 168]
[1]
  IC50: 475 nM
  inhibition at 1 µM: 72%
  Kb: 100 nM
[2]
  inhibition at 1 µM: 28%

## C[C@@]1(COc2cnc(C(F)(F)F)cn2)CCCN1C(=O)c1c(-c2ccccc2)nn2c1COCC2 [Example 169]
[1]
  inhibition at 1 µM: 2%
[2]
  inhibition at 1 µM: 15%

## C[C@@]1(COc2cnc(C(F)(F)F)cn2)CCCN1C(=O)c1nn2ccccc2c1-c1ccccc1 [Example 170]
[1]
  IC50: 460 nM
  inhibition at 1 µM: 85%
  Kb: 97 nM
[2]
  inhibition at 1 µM: 23%

## O=C(c1nn2ccccc2c1-c1ccccn1)N1CCC[C@H]1Cc1nc(-c2ccccn2)no1 [Example 175]
[1]
  IC50: 11 nM
  inhibition at 1 µM: 93%
  Kb: 2 nM
[2]
  inhibition at 1 µM: 29%

## O=C(c1nn2ccccc2c1-c1ccccn1)N1CCC[C@H]1Cc1nc(-c2ccc(F)cn2)no1 [Example 176]
[1]
  IC50: 12 nM
  inhibition at 1 µM: 93%
  Kb: 2 nM
[2]
  inhibition at 1 µM: 40%

## O=C(c1nc2ccccn2c1-c1ccccn1)N1CCC[C@H]1COc1ccc(C(F)(F)F)cn1 [Example 179]
[1]
  IC50: 8 nM
  inhibition at 1 µM: 99%
  Kb: 2 nM
[2]
  inhibition at 1 µM: 12%

## O=C(c1nc2ccccn2c1-c1ccccn1)N1CCC[C@H]1Cn1ccc(-c2ccccn2)n1 [Example 180]
[1]
  IC50: 17 nM
  inhibition at 1 µM: 97%
  Kb: 4 nM
[2]
  inhibition at 1 µM: 27%

## O=C(c1nn2ccccc2c1-c1ccccn1)N1CCC[C@H]1Cn1ccc(-c2ccc(F)cn2)n1 [Example 182]
[1]
  IC50: 19 nM
  inhibition at 1 µM: 96%
  Kb: 4 nM
[2]
  inhibition at 1 µM: 59%

## O=C(c1nc2n(c1-c1ccccn1)CCOC2)N1CCC[C@H]1COc1ccc(C(F)(F)F)cn1 [Example 184]
[1]
  inhibition at 1 µM: 42%
[2]
  inhibition at 1 µM: 10%

## O=C(c1nn2cccnc2c1-c1ccccn1)N1CCC[C@H]1Cn1ccc(-c2ccccn2)n1 [Example 185]
[1]
  IC50: 16 nM
  inhibition at 1 µM: 94%
  Kb: 3 nM
[2]
  inhibition at 1 µM: 61%

## O=C(c1nn2cccnc2c1-c1ccccn1)N1CCC[C@H]1Cc1nc(-c2ccccn2)no1 [Example 188]
[1]
  IC50: 29 nM
  inhibition at 1 µM: 82%
  Kb: 6 nM
[2]
  inhibition at 1 µM: 23%

## O=C(c1nn2cccnc2c1-c1ccccn1)N1CCC[C@H]1Cc1nc(-c2ccc(F)cn2)no1 [Example 189]
[1]
  IC50: 18 nM
  inhibition at 1 µM: 94%
  Kb: 4 nM
[2]
  inhibition at 1 µM: 43%

## O=C(c1nn2cccnc2c1-c1ccccn1)N1CCC[C@H]1COc1ccc(C(F)(F)F)cn1 [Example 190]
[1]
  IC50: 5 nM
  inhibition at 1 µM: 91%
  Kb: 1 nM
[2]
  inhibition at 1 µM: 28%

## O=C(c1c(-c2ncccn2)nn2ccccc12)N1CCC[C@H]1COc1ccc(C(F)(F)F)cn1 [Example 191]
[1]
  IC50: 49 nM
  inhibition at 1 µM: 100%
  Kb: 10 nM
[2]
  inhibition at 1 µM: 11%

## O=C(c1c(-c2ccccn2)nn2ccccc12)N1CCC[C@H]1COc1ccc(C(F)(F)F)cn1 [Example 192]
[1]
  IC50: 11 nM
  inhibition at 1 µM: 88%
  Kb: 2 nM
[2]
  inhibition at 1 µM: 49%

## O=C(c1nn2cccnc2c1-c1ccccn1)N1CCC[C@H]1Cn1ccc(-c2ccc(F)cn2)n1 [Example 193]
[1]
  IC50: 16 nM
  inhibition at 1 µM: 91%
  Kb: 3 nM
[2]
  inhibition at 1 µM: 71%

## O=C(c1nn2c(c1-c1ccccn1)OCCC2)N1CCC[C@H]1Cn1ccc(-c2ccccn2)n1 [Example 195]
[1]
  IC50: 15 nM
  inhibition at 1 µM: 100%
  Kb: 3 nM
[2]
  inhibition at 1 µM: 29%

## O=C(c1nn2c(c1-c1ccccn1)COCC2)N1CCC[C@H]1Cn1ccc(-c2ccc(F)cn2)n1 [Example 196]
[1]; @ 1 uM
  OX1R, % Inh. @ 1 uM: 99%
[1]
  IC50: 24 nM
  Kb: 5 nM
[2]; @ 1 uM
  OX2R, % Inh. @ 1 uM: 39%

## O=C(c1nn2c(c1-c1ccccn1)OCCC2)N1CCC[C@H]1Cc1nc(-c2ccccn2)no1 [Example 199]
[1]
  inhibition at 1 µM: 64%
[2]
  inhibition at 1 µM: 8%

## O=C(c1nn2c(c1-c1ccccn1)OCCC2)N1CCC[C@H]1COc1ccc(C(F)(F)F)cn1 [Example 201]
[1]
  IC50: 9 nM
  inhibition at 1 µM: 100%
  Kb: 2 nM
[2]
  inhibition at 1 µM: 19%

## O=C(c1c(-c2ncccn2)nn2ccccc12)N1CCC[C@H]1Cn1ccc(-c2ccc(F)cn2)n1 [Example 203]
[1]
  IC50: 17 nM
  inhibition at 1 µM: 98%
  Kb: 4 nM
[2]
  inhibition at 1 µM: 78%

## O=C(c1c(-c2ncccn2)nn2ccccc12)N1CCC[C@H]1Cn1cc(-c2ccc(F)cn2)cn1 [Example 204]
[1]
  inhibition at 1 µM: 53%
[2]
  inhibition at 1 µM: 66%

## O=C(c1c(-c2ccccn2)nn2ccccc12)N1CCC[C@H]1Cn1ccc(-c2ccc(F)cn2)n1 [Example 205]
[1]
  IC50: 12 nM
  inhibition at 1 µM: 99%
  Kb: 3 nM
[2]; first value of IC50/Kb cell
  IC50: 24 nM
[2]
  inhibition at 1 µM: 98%
[2]; second value of IC50/Kb cell
  Kb: 4 nM
